Experimental data from the NIST ThermoML archive (doi:10.1021/je030191w).

Tests used:
[1] = 101 kPa, Liquid
[2] = xn = mol fraction of the nth substance listed; conditions: 101 kPa, Liquid, x1 = 1

CCn1cc[n+](C)c1.F[B-](F)(F)F [1-ethyl-3-methylimidazolium tetrafluoroborate]
[1]
Conditions | mass density [kg/m3] | viscosity [mPa·s]
293.15 K | 1340.7 | 45.29
298.15 K | 1336.7 | 37.19
303.15 K | 1332.9 | 31.36
308.15 K | 1329.6 | 25.56
313.15 K | 1325.9 | 21.54
318.15 K | 1322.2 | 18.84
323.15 K | 1319.5 | 15.9

O [water] + CCn1cc[n+](C)c1.F[B-](F)(F)F
[2]
Conditions | mass density [kg/m3] | viscosity [mPa·s]
293.15 K | – | 1.002
298.15 K | – | 0.89
303.15 K | – | 0.798
308.15 K | – | 0.719
313.15 K | – | 0.653
318.15 K | 990.1 | 0.599
323.15 K | 988 | 0.547
